Calls of active or inactive are those of the source. The rule behind the calls is not given here.
Assays:
Bel-7402 = experiment: Cytotoxicity against human Bel7402 cells at 10 uM after 96 hrs by MTT assay; assay type: functional, cell-based
HCT-8 = experiment: Cytotoxicity against human HCT8 cells at 10 uM after 96 hrs by MTT assay; assay type: functional, cell-based
Human alphaherpesvirus 1 = experiment: Antiviral activity against Herpes simplex virus 1 at 10 uM; assay type: functional, organism-based
[1] = tested on: Human immunodeficiency virus 1; experiment: Antiviral activity against HIV1 infected in 293T cells cotransfected with VSV-G at 10 uM after 48 hrs by ELISA; assay type: functional, organism-based
BGC-823 = experiment: Cytotoxicity against human BGC823 cells at 10 uM after 96 hrs by MTT assay; assay type: functional, cell-based
KETR3 = experiment: Cytotoxicity against human Ketr3 cells at 10 uM after 96 hrs by MTT assay; assay type: functional, cell-based
MCF7 = experiment: Cytotoxicity against human MCF7 cells at 10 uM after 96 hrs by MTT assay; assay type: functional, cell-based
A549 = experiment: Cytotoxicity against human A549 cells at 10 uM after 96 hrs by MTT assay; assay type: functional, cell-based
[2] = Hepatoprotective activity in rat WB-F344 cells assessed as inhibition of DL-Galactosamine-induced toxicity at 10 uM incubated for 1 hr prior to DL-Galactosamine-challenge measured after 24 hrs by MTT assay; assay type: functional
Influenza A virus = experiment: Antiviral activity against influenza A virus A/Hanfang/359/95 (H3N2) assessed as inhibition of virus-induced cytopathic effect in cell-based assay; assay type: functional, organism-based

SMILES	Activity (Bel-7402)	Activity (HCT-8)	Activity (Human alphaherpesvirus 1)	Activity [1]	Activity (BGC-823)	Activity (KETR3)	Activity (MCF7)	Activity (A549)	inhibition at 10 µM [2]	IC50 (Influenza A virus)
NC(=O)C[C@@]1(O)C(=O)Nc2ccccc21	inactive	inactive	inactive	inactive	inactive	inactive	inactive	inactive	–	–
N#CC[C@H]1C(=O)Nc2cccc(O)c21	inactive	inactive	inactive	inactive	inactive	inactive	inactive	inactive	46%	–
C[C@H]1OC2=C(NC1=O)C(=O)OCC2	inactive	inactive	inactive	inactive	inactive	inactive	inactive	inactive	–	–
N#CCc1c[nH]c2cc(O[C@@H]3O[C@H](CO)[C@@H](O)[C@H](O)[C@H]3O)ccc12	inactive	inactive	inactive	inactive	inactive	inactive	inactive	inactive	–	–
O=C1c2ccccc2-n2c1nc1ccccc1c2=O	inactive	inactive	inactive	inactive	inactive	inactive	inactive	inactive	–	–
N#CC[C@@]1(O)C(=O)Nc2ccccc21	inactive	inactive	inactive	inactive	inactive	inactive	inactive	inactive	–	–
O=c1cc(-c2ccc(CO)o2)c2cc(O)ccc2[nH]1	inactive	inactive	inactive	inactive	inactive	inactive	inactive	inactive	–	–
O=C1O[C@H]([C@@H](O)CO)[C@@H](O)[C@@]1(O)Cc1c[nH]c2ccccc12	inactive	inactive	inactive	inactive	inactive	inactive	inactive	inactive	–	–
O=C1/C(=C/c2c[nH]c3ccccc23)Nc2ccccc21	inactive	inactive	inactive	inactive	inactive	inactive	inactive	inactive	44%	–
NC(=O)C[C@H]1C(=O)Nc2cccc(O)c21	inactive	inactive	inactive	inactive	inactive	inactive	inactive	inactive	–	–
Nc1ccccc1C(=O)O[C@@H]1O[C@H](CO)[C@@H](O)[C@H](O)[C@H]1O	inactive	inactive	inactive	inactive	inactive	inactive	inactive	inactive	–	–
O=C1C[C@@]2(O)c3ccccc3N3C(=O)c4ccccc4N1[C@H]32	inactive	inactive	inactive	inactive	inactive	inactive	inactive	inactive	–	–
O=C1C[C@]2(O)c3ccccc3N3C(=O)c4ccccc4N1[C@@H]32	inactive	inactive	inactive	inactive	inactive	inactive	inactive	inactive	–	–
COc1ccc([C@@H](C)c2ccc(O)cc2)c2[nH]cc(CC#N)c12	inactive	inactive	inactive	inactive	inactive	inactive	inactive	inactive	–	3.7 µM
COC(=O)c1ccccc1NC(=O)c1c[nH]c2ccccc2c1=O	inactive	inactive	inactive	inactive	inactive	inactive	inactive	inactive	–	–

— ChEMBL document CHEMBL2062405, “Alkaloids from the root of Isatis indigotica” (J Nat Prod, 2012)
